Assay results reported in patent publication US11040028B2, “Penicinotam derivative, preparation method and use thereof” (OCEAN UNIVERSITY OF CHINA, priority 2017, dated 2021).
Like-named read-outs stand apart in the source and are kept apart here.

Legend:
Format in all cases: cell-based
BHK-21 cells = experiment: Anti-fibrosis activity test: inhibition of BHK-21 cell proliferation (CCK-8); details: Mesocricetus auratus, BHK-21, 48 h
Method in brief: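 Proliferation of BHK-21 cells is measured by CCK-8 at 450 nm following 48 h compound exposure at several concentrations. Inhibition is expressed relative to blank control and IC50 is computed from it.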

[1] = tested on: human lung fibroblasts HFL1; experiment: Anti-fibrosis activity test: inhibition of proliferation of human lung fibroblasts HFL1 (CCK-8); details: Homo sapiens, HFL1, 48 h
Method in brief: (§1)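 Proliferation read by CCK-8 (2 h, A450) after 48 h compound treatment of cells plated at 2×10^4 cells/mL and allowed 24 h attachment, triplicate per concentration. Inhibition rate derived from absorbance relative to untreated blank, with IC50 fitted; pirfenidone as positive control.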

[2] = tested on: human hepatic stellate cells LX-2; experiment: Anti-fibrosis activity test: inhibition of proliferation of human hepatic stellate cells LX-2 (CCK-8); details: Homo sapiens, 48 h
Method in brief: as §1

[3] = tested on: human fibrosarcoma cells HT-1080; experiment: Anti-fibrosis activity test: inhibition of proliferation of human fibrosarcoma cells HT-1080 (CCK-8); details: Homo sapiens, HT-1080, 48 h
Method in brief: as §1

[4] = tested on: human dermal fibroblasts CCC-ESF-1; experiment: Anti-fibrosis activity test: inhibition of proliferation of human dermal fibroblasts CCC-ESF-1 (CCK-8); details: Fibroblast
Method in brief: as §1

[5] = tested on: human embryonic lung fibroblast IMR-90; experiment: Anti-fibrosis activity test: inhibition of proliferation of human embryonic lung fibroblast IMR-90 (CCK-8)
Method in brief: as §1

[6] = tested on: cardiac fibroblast RAT-iCell-C002; experiment: Anti-fibrosis activity test: inhibition of proliferation of cardiac fibroblast RAT-iCell-C002 (CCK-8)
Method in brief: as §1

[7] = tested on: mouse macrophages (RAW264.7); experiment: Lipopolysaccharide-induced NO secretion in macrophages (Griess); details: RAW264.7, LPS 1 μg/ml, a/b isomers given as first/second symbol, read-out: IC50 (μM), inhibition of lipopolysaccharide-induced NO secretion in macrophages
Experimental: The effects of the compounds of the present application on the lipopolysaccharide-induced NO secretion in macrophage was tested Principle: Anti-inflammatory drug activity screening is to detect the inhibitory effect of compounds on NO production in the mouse macrophages (RAW264.7). When immune cells are stimulated by microbial endotoxin, inflammatory mediators, etc., a large amount of induced NO synthase (iNOS) is produced, and thus NO is generated for immune response. Accordingly, the inhibition of NO production can serve as a direct indicator of the anti-inflammatory activity of the compound. The activity of the compound to inhibit NO production at the cellular level is directly evaluated in the abovementioned test model, thereby reflecting the anti-inflammatory activity of the compound. In this experiment, the content of NO in the medium was detected by Gris kit (Molecular probes, G-7921). Macrophages (Raw264.7) were cultured in DMEM medium containing 10% fetal bovine serum, with the cell concentration adjusted. The cells were seeded in 24-well cell culture plates, cultured in an incubator, and the test samples in different concentrations were added every other day. The blank medium was used as a blank control, and commercially available indomethacin and resveratrol were employed as positive controls. After the addition of lipopolysaccharide (LPS, 1 μg/ml), incubation was performed for 24 hours. Then the supernatant culture solution was taken, to […] reagent was added, and the absorbance value was measured by a microplate reader at 548 nm. Inhibition rate=([…])×100%.

[8] = CCK-8, 48 hours after administration
[9] = human lung fibroblasts HFL1, CCK-8, 48 hours
[10] = human hepatic stellate cells LX-2, CCK-8, 48 hours
[11] = human fibrosarcoma cells HT-1080, CCK-8, 48 hours
[12] = human dermal fibroblasts CCC-ESF-1, CCK-8, 48 hours
[13] = human embryonic lung fibroblast IMR-90, CCK-8, 48 hours
[14] = Cardiac fibroblast, 48 h, cardiac fibroblast RAT-iCell-C002, CCK-8, 48 hours
[15] = cardiac fibroblast RAT-iCell-C002, CCK-8, 48 hours
[16] = Homo sapiens, CCC-ESF-1 cells, 48 h, CCK-8
[17] = Homo sapiens, IMR-90 cells, 48 h, CCK-8
[18] = Cardiac fibroblast, 48 h, RAT-iCell-C002 cells, CCK-8

Row | SMILES | IC50 (BHK-21 cells; [8]) [mM] | IC50 [1, 9] [mM] | IC50 [2, 10] [mM] | IC50 [3, 11] [mM] | IC50 [4, 12] [mM] | IC50 [5, 13] [mM] | IC50 [6, 14] [mM] | IC50 ([7]; Mus musculus, RAW264.7, 24 h) [µM] | IC50 [6, 15] [mM] | IC50 ([7]; 24 hours) [µM] | IC50 (BHK-21 cells; 48 h, CCK-8) [mM] | IC50 ([1]; HFL1 cells, 48 h, CCK-8) [mM] | IC50 ([2]; LX-2, 48 h, LX-2 cells, CCK-8) [mM] | IC50 ([3]; HT-1080 cells, 48 h, CCK-8) [mM] | IC50 [4, 16] [mM] | IC50 [5, 17] [mM] | IC50 [6, 18] [mM]
1 | CCn1c2c(c(=O)c3cc(F)ccc31)C(=O)n1cccc1-2 [Compound 104a, 4-Ethyl-7-fluoro-9H-pyrrolizino[1,2-b]quinoline-9,10(4H)-dione] | < 0.05 | 0.05 to 5 | 0.05 to 5 | 0.05 to 5 | 0.05 to 5 | 0.05 to 5 | 0.05 to 5 | 1 to 10 | – | – | – | – | – | – | – | – | –
2 | CCOc1c2c(nc3ccc(F)cc13)-c1cccn1C2=O [Compound 104b, 9-ethoxy-7-fluoro-10H-pyrrolizino[1,2-b]quinolin-10-one] | 0.05 to 5 | 0.05 to 5 | 0.05 to 5 | 0.05 to 5 | 0.05 to 5 | 0.05 to 5 | 0.05 to 5 | 1 to 10 | – | – | – | – | – | – | – | – | –
3 | CC(C)n1c2c(c(=O)c3cc(F)ccc31)C(=O)n1cccc1-2 [Compound 108a, 7-Fluoro-4-isopropyl-9H-pyrrolizino[1,2-b]quinoline-9,10(4H)-dione] | 0.05 to 5 | 0.05 to 5 | 0.05 to 5 | 5 to 20 | 0.05 to 5 | 0.05 to 5 | 0.05 to 5 | 1 to 10 | – | – | – | – | – | – | – | – | –
4 | CC(C)Oc1c2c(nc3ccc(F)cc13)-c1cccn1C2=O [Compound 108b, 7-fluoro-9-isopropoxy-10H-pyrrolizino[1,2-b]quinolin-10-one] | 0.05 to 5 | 0.05 to 5 | 0.05 to 5 | 5 to 20 | 0.05 to 5 | 0.05 to 5 | 0.05 to 5 | 1 to 10 | – | – | – | – | – | – | – | – | –
5 | C=CCn1c2c(c(=O)c3cc(F)ccc31)C(=O)n1cccc1-2 [Compound 109a, 4-Allyl-7-fluoro-9H-pyrrolizino[1,2-b]quinoline-9,10(4H)-dione] | 0.05 to 5 | 0.05 to 5 | 0.05 to 5 | 0.05 to 5 | 0.05 to 5 | < 0.05 | 0.05 to 5 | 0.1 to 1 | – | – | – | – | – | – | – | – | –
6 | C=CCOc1c2c(nc3ccc(F)cc13)-c1cccn1C2=O [Compound 109b, 9-(allyloxy)-7-fluoro-10H-pyrrolizino[1,2-b]quinolin-10-one] | 0.05 to 5 | 0.05 to 5 | 0.05 to 5 | 0.05 to 5 | 0.05 to 5 | 0.05 to 5 | 0.05 to 5 | 0.1 to 1 | – | – | – | – | – | – | – | – | –
7 | O=C1c2c(n(CCO)c3ccc(F)cc3c2=O)-c2cccn21 [Compound 114a, 7-Fluoro-4-(2-hydroxyethyl)-9H-pyrrolizino[1,2-b]quinoline-9,10(4H)-dione] | < 0.05 | 0.05 to 5 | 0.05 to 5 | 0.05 to 5 | 0.05 to 5 | 0.05 to 5 | 0.05 to 5 | 1 to 10 | – | – | – | – | – | – | – | – | –
8 | O=C1c2c(nc3ccc(F)cc3c2OCCO)-c2cccn21 [Compound 114b, 7-fluoro-9-(2-hydroxyethoxy)-10H-pyrrolizino[1,2-b]quinolin-10-one] | 0.05 to 5 | 0.05 to 5 | 0.05 to 5 | 0.05 to 5 | 0.05 to 5 | 0.05 to 5 | 0.05 to 5 | 1 to 10 | – | – | – | – | – | – | – | – | –
9 | O=C1c2c(n(Cc3ccc(Cl)cc3)c3c(C(F)(F)F)c(N4CCNCC4)ccc3c2=O)-c2cccn21 [Compound 487a, 4-(4-Chlorobenzyl)-6-(piperazin-1-yl)-5-(trifluoromethyl)-9H-pyrrolizino[1,2-b]quinoline-9,10(4H)-dione] | – | – | – | – | – | – | – | – | < 0.05 | 0.1 to 1 | – | – | – | – | – | – | –
10 | O=C1c2c(nc3c(C(F)(F)F)c(N4CCNCC4)ccc3c2OCc2ccc(Cl)cc2)-c2cccn21 [Compound 487b, 9-((4-chlorobenzyl)oxy)-6-(piperazin-1-yl)-5-(trifluoromethyl)-10H-pyrrolizino[1,2-b]quinolin-10-one] | – | – | – | – | – | – | – | – | 0.05 to 5 | 10 to 50 | – | – | – | – | – | – | –
11 | O=C1c2c(n(Cc3ccc(Cl)cc3)c3cc(N4CCNCC4)cc(F)c3c2=O)-c2cccn21 [Compound 647a, 4-(4-Chlorobenzyl)-8-fluoro-6-(piperazin-1-yl)-9H-pyrrolizino[1,2-b]quinoline-9,10(4H)-dione] | 0.05 to 5 | 0.05 to 5 | 0.05 to 5 | 0.05 to 5 | 0.05 to 5 | 0.05 to 5 | 0.05 to 5 | – | – | – | – | – | – | – | – | – | –
12 | O=C1c2c(nc3cc(N4CCNCC4)cc(F)c3c2OCc2ccc(Cl)cc2)-c2cccn21 [Compound 647b, 9-((4-chlorobenzyl)oxy)-8-fluoro-6-(piperazin-1-yl)-10H-pyrrolizino[1,2-b]quinolin-10-one] | 0.05 to 5 | 0.05 to 5 | 0.05 to 5 | 0.05 to 5 | 0.05 to 5 | 0.05 to 5 | 0.05 to 5 | – | – | – | – | – | – | – | – | – | –
13 | Cc1ccc2n1C(=O)c1c-2[nH]c2ccccc2c1=O [Compound 800a, 1-Methyl-9H-pyrrolizino[1,2-b]quinoline-9,10(4H)-dione] | – | – | – | – | – | – | – | – | – | – | 0.05 to 5 | 0.05 to 5 | 0.05 to 5 | 0.05 to 5 | 0.05 to 5 | 0.05 to 5 | 0.05 to 5
14 | Cc1ccc2n1C(=O)c1c-2nc2ccccc2c1O [Compound 800b, 9-hydroxy-1-methyl-10H-pyrrolizino[1,2-b]quinolin-10-one] | – | – | – | – | – | – | – | – | – | – | 0.05 to 5 | 0.05 to 5 | 0.05 to 5 | 0.05 to 5 | 0.05 to 5 | 0.05 to 5 | 0.05 to 5
15 | Cc1cc2n(c1)C(=O)c1c-2[nH]c2ccccc2c1=O [Compound 801a, 2-Methyl-9H-pyrrolizino[1,2-b]quinoline-9,10(4H)-dione] | – | – | – | – | – | – | – | – | – | – | < 0.05 | 0.05 to 5 | 0.05 to 5 | 0.05 to 5 | 0.05 to 5 | 0.05 to 5 | 0.05 to 5
16 | COc1ccc2c(c1)c(CC(=O)O)c(C)n2C(=O)c1ccc(Cl)cc1 [indomethacin, reference compound] | – | – | – | – | – | – | – | 10 to 50 | – | – | – | – | – | – | – | – | –
17 | Oc1ccc(C=Cc2cc(O)cc(O)c2)cc1 [resveratrol, reference compound] | – | – | – | – | – | – | – | 1 to 10 | – | – | – | – | – | – | – | – | –
